Experiment [1] relates to HIF1α. Put plainly: Heat shock-induced HIF1α level in HCT116 (Western blot). Conditions: HCT116, normoxia. The format is cell-based. The text has this: (§1) HCT116, SW480, HT29, DLD1, and RKO cells were obtained from American Type Culture Collection. HCT116 and HT29 cells were maintained in McCoy's 5A medium (Hyclone) with 10% fetal bovine serum (FBS, Hyclone) and 1% penicillin/streptomycin (P/S). SW480, DLD1, and RCC4 cells were maintained in Dulbecco's modified Eagle medium (Hyclone) with 10% FBS and 1% P/S. RKO cells were maintained in RPMI 1640 medium (Hyclone) with 10% FBS and 1% P/S. Cells were regularly tested and authenticated. All cell lines were maintained at 37° C. in 5% CO2. As for hypoxia treatment, cells were kept in a hypoxia chamber (In vivo^2, Ruskinn) which maintains 0.5% O2.
(§2) Treated cells were lysed in RIPA buffer (Sigma). Protein concentrations were determined using a BCA Protein Assay Kit (Life Technologies). Equal amounts of total protein were boiled with LDS sample buffer (Thermo Fisher Scientific) and reducing agent (Invitrogen). Samples were analyzed with SDS-PAGE. Proteins were transferred to an Immobilon-P PVDF membrane (EMD Millipore). First and secondary antibodies were added in order. Signals were detected after addition of the ECL western blotting substrate (Thermo Fisher Scientific).

The test system of experiment [2] is HIF1α. Put plainly: HIF1α level in RCC4 cells (Western blot). The class given is cell-based. Conditions: 6 hours under normoxia, independently of VHL presence.
Description: as §1, §2
(A western blot detects proteins with antibodies after separation by electrophoresis.)

In the case of `O=C1NC(=NCc2cccs2)S/C1=C\c1ccc2ncccc2c1` [Ro-3306], in the experiment with HIF1α [1], the “reversal of heat shock upregulation of HIF1α” value is reported as “reversed”. Besides, the “level of HIF1α” value with HIF1α [2] is “decreases”.

The values are drawn from patent US10729692B2, “Dual inhibition of CDK and HSP90 destabilize HIF1alpha and synergistically induces cancer cell death” (Institute For Cancer Research, priority 2017, dated 2020).
